According to patent US7772241B2, “Variolin derivatives and their use as antitumor agents” (Pharma Mar S.A., priority 2001, dated 2010):

What was measured:
SK-OV-3 = assay: Inhibition of cells growth by colorimetric (SRB) assay, SK-OV-3; conditions: for GI50 / CC50: Homo sapiens, SK-OV-3, 48 h; for GI50: read-out: GI50 SKOV-3, SRB assay, 48 hours exposure; for CC50: read-out: LC50 SKOV-3, SRB assay, 48 hours exposure; for TGI SKOV-3: SRB assay, 48 hours exposure
Outline: (§1)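 Read-out is sulforhodamine B protein stain (OD 490 nm) after cold TCA fixation, following 48 h continuous exposure to samples spanning 10 to 10^−8 μg/ml.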

HMEC1 = assay: Inhibition of cells growth by colorimetric (SRB) assay, HMEC1; conditions: for GI50: Homo sapiens, HMEC-1, 48 h, read-out: GI50 H-MEC-1, SRB assay, 48 hours exposure; for TGI H-MEC-1: SRB assay, 48 hours exposure, in M (unit assumed)
[1] = as above; conditions: human, HMEC1 cells, LC50 H-MEC-1, SRB assay, 48 hours exposure
LNCaP = assay: Inhibition of cells growth by colorimetric (SRB) assay, LNCaP; conditions: for GI50 / CC50: Homo sapiens, LNCaP, 48 h; for GI50: read-out: GI50 LN-caP, SRB assay, 48 hours exposure; for CC50: read-out: LC50 LN-caP, SRB assay, 48 hours exposure; for TGI LN-caP: SRB assay, 48 hours exposure
Outline: as §1

LoVo-Dox = assay: Inhibition of cells growth by colorimetric (SRB) assay, LoVo-Dox; conditions: for GI50 / CC50: Homo sapiens, 48 h; for GI50: read-out: GI50 LOVO-DOX, SRB assay, 48 hours exposure; for CC50: read-out: LC50 LOVO-DOX, SRB assay, 48 hours exposure; for TGI LOVO-DOX: SRB assay, 48 hours exposure
Outline: as §1

SK-MEL-28 = assay: Inhibition of cells growth by colorimetric (SRB) assay, SK-MEL-28; conditions: for GI50 / CC50: Homo sapiens, SK-MEL-28, 48 h; for GI50: read-out: GI50 MEL-28, SRB assay, 48 hours exposure; for CC50: read-out: LC50 MEL-28, SRB assay, 48 hours exposure; for TGI MEL-28: SRB assay, 48 hours exposure
Outline: as §1

IGROV-ET = assay: Inhibition of cells growth by colorimetric (SRB) assay, IGROV-ET; conditions: for GI50 / CC50: Homo sapiens, 48 h; for GI50: read-out: GI50 IGROV-ET, SRB assay, 48 hours exposure; for CC50: read-out: LC50 IGROV-ET, SRB assay, 48 hours exposure; for TGI IGROV-ET: SRB assay, 48 hours exposure
Outline: as §1

DU-145 = assay: Inhibition of cells growth by colorimetric (SRB) assay, DU-145; conditions: for GI50 / CC50: Homo sapiens, DU-145, 48 h; for GI50: read-out: GI50 DU-145, SRB assay, 48 hours exposure; for CC50: read-out: LC50 DU-145, SRB assay, 48 hours exposure; for TGI DU-145: SRB assay, 48 hours exposure
Outline: as §1

PANC-1 = assay: Inhibition of cells growth by colorimetric (SRB) assay, PANC-1; conditions: for GI50 / CC50: Homo sapiens, PANC-1, 48 h; for GI50: read-out: GI50 PANC-1, SRB assay, 48 hours exposure; for CC50: read-out: LC50 PANC-1, SRB assay, 48 hours exposure; for TGI PANC-1: SRB assay, 48 hours exposure
Outline: as §1

IGROV-1 = assay: Inhibition of cells growth by colorimetric (SRB) assay, IGROV-1; conditions: for GI50 / CC50: Homo sapiens, IGROV-1, 48 h; for GI50: read-out: GI50 IGROV, SRB assay, 48 hours exposure; for CC50: read-out: LC50 IGROV, SRB assay, 48 hours exposure; for TGI IGROV: SRB assay, 48 hours exposure
Outline: as §1

K-562 = assay: Inhibition of cells growth by colorimetric (SRB) assay, K-562; conditions: for GI50 / CC50: Homo sapiens, K562, 48 h; for GI50: read-out: GI50 K-562, SRB assay, 48 hours exposure; for CC50: read-out: LC50 K-562, SRB assay, 48 hours exposure; for TGI K-562: SRB assay, 48 hours exposure
Outline: as §1

LoVo = assay: Inhibition of cells growth by colorimetric (SRB) assay, LoVo; conditions: for GI50 / CC50: Homo sapiens, LoVo, 48 h; for GI50: read-out: GI50 LOVO, SRB assay, 48 hours exposure; for CC50: read-out: LC50 LOVO, SRB assay, 48 hours exposure; for TGI LOVO: SRB assay, 48 hours exposure
Outline: as §1

HT-29 = assay: Inhibition of cells growth by colorimetric (SRB) assay, HT-29; conditions: for GI50 / CC50: Homo sapiens, HT-29, 48 h; for GI50: read-out: GI50 HT-29, SRB assay, 48 hours exposure; for CC50: read-out: LC50 HT-29, SRB assay, 48 hours exposure; for TGI HT-29: SRB assay, 48 hours exposure
Outline: as §1

SK-BR-3 = assay: Inhibition of cells growth by colorimetric (SRB) assay, SK-BR-3; conditions: for GI50 / CC50: Homo sapiens, SK-BR-3, 48 h; for GI50: read-out: GI50 SK-BR-3, SRB assay, 48 hours exposure; for CC50: read-out: LC50 SK-BR-3, SRB assay, 48 hours exposure; for TGI SK-BR-3: SRB assay, 48 hours exposure
Outline: as §1

A-549 = assay: Inhibition of cells growth by colorimetric (SRB) assay, A-549; conditions: for GI50 / CC50: Homo sapiens, A549, 48 h; for GI50: read-out: GI50 A-549, SRB assay, 48 hours exposure; for CC50: read-out: LC50 A-549, SRB assay, 48 hours exposure; for TGI A-549: SRB assay, 48 hours exposure
Outline: as §1

Compound: COc1ccc2nc3c(cc2c1)c(-c1ccnc(SC)n1)c1ccnc(N)n13 [Compound 18b]
- GI50 (SK-OV-3): ≥ 25.7 µM
- CC50 (SK-OV-3): ≥ 25.7 µM
- TGI SKOV-3 (SK-OV-3): 2.57E−05
- GI50 (HMEC1): 12.2 µM
- TGI H-MEC-1 (HMEC1): 1.69E−05
- CC50 at 48 h [1]: 23.3 µM
- GI50 (LNCaP): 16.6 µM
- CC50 (LNCaP): ≥ 25.7 µM
- TGI LN-caP (LNCaP): 2.57E−05
- GI50 (LoVo-Dox): ≥ 25700 nM
- CC50 (LoVo-Dox): ≥ 25.7 µM
- TGI LOVO-DOX (LoVo-Dox): 2.57E−05
- GI50 (SK-MEL-28): ≥ 25.7 µM
- CC50 (SK-MEL-28): ≥ 25.7 µM
- TGI MEL-28 (SK-MEL-28): 2.57E−05
- GI50 (IGROV-ET): ≥ 25.7 µM
- CC50 (IGROV-ET): ≥ 25.7 µM
- TGI IGROV-ET (IGROV-ET): 2.57E−05
- GI50 (DU-145): ≥ 25.7 µM
- CC50 (DU-145): ≥ 25.7 µM
- TGI DU-145 (DU-145): 2.57E−05
- GI50 (PANC-1): 10.3 µM
- CC50 (PANC-1): ≥ 25.7 µM
- TGI PANC-1 (PANC-1): 2.57E−05
- GI50 (IGROV-1): 20.8 µM
- CC50 (IGROV-1): ≥ 25.7 µM
- TGI IGROV (IGROV-1): 2.57E−05
- GI50 (K-562): ≥ 25.7 µM
- CC50 (K-562): ≥ 25.7 µM
- TGI K-562 (K-562): 2.57E−05
- GI50 (LoVo): ≥ 25700 nM
- CC50 (LoVo): ≥ 25.7 µM
- TGI LOVO (LoVo): 2.57E−05
- GI50 (HT-29): ≥ 25.7 µM
- CC50 (HT-29): ≥ 25.7 µM
- TGI HT-29 (HT-29): 2.57E−05
- GI50 (SK-BR-3): ≥ 25.7 µM
- CC50 (SK-BR-3): ≥ 25.7 µM
- TGI SK-BR-3 (SK-BR-3): 2.57E−05
- GI50 (A-549): ≥ 25700 nM
- CC50 (A-549): ≥ 25.7 µM
- TGI A-549 (A-549): 2.57E−05

Compound: Nc1nccc(-c2c3cc(Cl)cnc3n3c(N)nccc23)n1 [Compound 49]
- GI50 (SK-OV-3): 5.42 µM
- CC50 (SK-OV-3): 32.1 µM
- TGI SKOV-3 (SK-OV-3): 1.50E−05
- GI50 (HMEC1): 0.456 µM
- TGI H-MEC-1 (HMEC1): 4.59E−06
- CC50 at 48 h [1]: 8.73 µM
- GI50 (LNCaP): 1.26 µM
- CC50 (LNCaP): 19.5 µM
- TGI LN-caP (LNCaP): 4.30E−06
- GI50 (LoVo-Dox): 2110 nM
- CC50 (LoVo-Dox): 27.6 µM
- TGI LOVO-DOX (LoVo-Dox): 7.86E−06
- GI50 (SK-MEL-28): 6.35 µM
- CC50 (SK-MEL-28): 32.1 µM
- TGI MEL-28 (SK-MEL-28): 1.43E−05
- GI50 (IGROV-ET): 4.23 µM
- CC50 (IGROV-ET): 32.1 µM
- TGI IGROV-ET (IGROV-ET): 1.20E−05
- GI50 (DU-145): 5.33 µM
- CC50 (DU-145): 32.1 µM
- TGI DU-145 (DU-145): 1.38E−05
- GI50 (PANC-1): 10.7 µM
- CC50 (PANC-1): 32.1 µM
- TGI PANC-1 (PANC-1): 3.21E−05
- GI50 (IGROV-1): 4.68 µM
- CC50 (IGROV-1): 29.3 µM
- TGI IGROV (IGROV-1): 1.17E−05
- GI50 (K-562): 13.9 µM
- CC50 (K-562): 32.1 µM
- TGI K-562 (K-562): 2.77E−05
- GI50 (LoVo): 2370 nM
- CC50 (LoVo): 32.1 µM
- TGI LOVO (LoVo): 1.16E−05
- GI50 (HT-29): 12 µM
- CC50 (HT-29): 32.1 µM
- TGI HT-29 (HT-29): 3.21E−05
- GI50 (SK-BR-3): 7.19 µM
- CC50 (SK-BR-3): 32.1 µM
- TGI SK-BR-3 (SK-BR-3): 1.86E−05
- GI50 (A-549): 2110 nM
- CC50 (A-549): 32.1 µM
- TGI A-549 (A-549): 9.21E−06
